From the supplement of paper PMC10307832

Compound: C=CC(=O)N1CCC[C@@H](n2nc(-c3ccc(Oc4ccccc4)cc3)c3c(N)ncnc32)C1 [Ibrutinib]
Test: relative viability (nuclei count vs DMSO), 5 days (fraction); higher = more cells survive
How it was run: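 Lung cancer cell lines received five library-drug doses (not always all listed) spaced by √10, pinned on vehicle-anchored 1536-well plates after an overnight stay at 37 °C. Five days later, with no medium change, nuclei were Hoechst-stained, imaged at 4× and counted with MetaXpress. Viability is treated-well nuclei relative to vehicle-well nuclei, as a median across plates. Passing plates had control CV below 25% and at least one doubling.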

| Cell Line | relative viability (0.005 µM) | relative viability (0.01581 µM) | relative viability (0.05 µM) | relative viability (0.1581 µM) | relative viability (0.5 µM) |
| --- | --- | --- | --- | --- | --- |
| 201T | 0.979 | 0.992 | 0.964 | 0.876 | 0.955 |
| A549 | 0.884 | 0.891 | 1 | 0.988 | 0.935 |
| A-427 | 0.9 | 0.969 | 0.953 | 0.951 | 0.98 |
| ABC-1 | 0.907 | 0.761 | 0.887 | 0.744 | 0.94 |
| BEN |  | 0.925 | 0.843 | 0.718 | 0.997 |
| CAL-12T | 0.824 | 0.907 | 0.902 | 0.932 | 0.678 |
| COR-L23 | 1.09 | 0.967 | 1.03 | 1.03 | 1.18 |
| COR-L 105 | 0.806 | 0.878 | 0.676 | 0.814 | 0.393 |
| Calu-6 | 1.1 | 0.965 | 1 | 1.01 | 1.03 |
| ChaGo-K-1 | 0.953 | 0.95 | 0.958 | 0.913 | 1.02 |
| EBC-1 | 1.09 | 0.947 | 0.922 | 0.97 | 1.06 |
| EKVX | 0.955 | 0.95 | 0.901 | 0.849 | 0.584 |
| EMC-BAC-2 | 0.897 | 1.01 | 0.739 |  | 0.96 |
| EPLC-272H | 0.681 | 0.859 | 0.677 | 0.686 | 0.664 |
| H3255 | 0.912 | 0.858 | 0.745 | 0.945 | 0.547 |
| HARA | 0.976 | 0.965 | 0.689 | 0.793 | 0.457 |
| HCC-15 | 1.12 | 1.01 | 1.04 | 0.857 | 1 |
| HCC-44 | 1.04 | 0.995 | 0.994 | 1.02 | 1.04 |
| HCC-78 | 0.904 | 0.97 | 0.916 | 0.748 | 0.691 |
| HCC-366 | 1 | 0.962 | 0.968 | 0.913 | 1 |
| HCC-827 |  | 1.01 | 1.08 | 1.02 | 0.868 |
| HOP-62 | 1.02 | 0.964 | 0.994 | 0.949 | 1.14 |
| IA-LM | 0.794 | 1 | 1.06 | 1.05 | 1.04 |
| LC-2-ad | 0.996 | 0.973 | 0.941 | 0.905 | 0.995 |
| LCLC-97TM1 | 1.11 | 0.888 | 0.906 | 0.85 | 0.909 |
| LCLC-103H | 0.966 | 0.999 | 0.965 | 0.882 | 0.946 |
| LK-2 | 0.936 | 0.912 | 0.956 | 0.929 | 0.949 |

| Cell Line | relative viability (0.005 µM) | relative viability (0.01581 µM) | relative viability (0.05 µM) | relative viability (0.1581 µM) | relative viability (0.5 µM) |
| --- | --- | --- | --- | --- | --- |
| LOU-NH91 | 0.801 | 0.926 | 0.848 | 0.884 | 0.678 |
| LU99A | 0.992 | 0.884 | 0.892 | 1.06 | 0.939 |
| LXF-289 | 1.06 | 1.01 | 1.04 | 0.972 | 0.973 |
| NCI-H23 | 0.829 | 0.897 | 0.912 | 0.761 | 0.977 |
| NCI-H322M | 0.801 | 0.811 | 0.843 | 0.666 | 0.671 |
| NCI-H358 | 0.637 | 0.713 | 0.611 | 0.786 | 0.47 |
| NCI-H441 | 1.11 | 0.947 | 1.26 | 1.16 | 1.13 |
| NCI-H460 | 1.07 | 0.922 | 0.979 | 0.917 | 1.02 |
| NCI-H520 | 0.874 | 0.791 | 0.991 | 1 | 0.839 |
| NCI-H522 | 0.796 | 1.09 | 0.85 | 0.752 | 0.76 |
| NCI-H596 | 0.74 | 0.965 | 0.939 | 0.837 | 0.858 |
| NCI-H647 | 0.724 | 0.855 | 0.86 | 0.876 | 0.879 |
| NCI-H650 | 0.772 | 0.991 | 0.802 | 1.05 | 1.01 |
| NCI-H661 | 0.95 | 0.957 | 0.868 | 0.96 | 0.601 |
| NCI-H727 | 0.857 | 0.912 | 0.902 | 0.61 |  |
| NCI-H838 | 0.923 | 0.893 | 0.986 | 0.938 | 0.948 |
| NCI-H1299 | 1.02 | 1.01 | 1.05 | 1.01 | 1.05 |
| NCI-H1355 |  | 0.975 | 1.02 | 0.826 | 0.843 |
| NCI-H1395 | 0.763 | 1.04 | 0.855 | 0.713 | 0.957 |
| NCI-H1437 | 0.957 | 0.975 | 0.981 | 0.974 | 1.02 |
| NCI-H1563 | 0.922 | 0.893 | 1 | 0.977 | 0.861 |
| NCI-H1623 | 0.894 | 0.842 | 0.672 | 0.858 | 0.299 |
| NCI-H1648 | 0.758 | 0.751 | 0.676 | 0.792 | 0.63 |
| NCI-H1650 | 0.793 | 0.841 | 0.76 | 0.79 | 0.706 |
| NCI-H1651 | 0.931 | 0.93 | 0.913 | 0.923 | 1.03 |
| NCI-H1666 | 1.03 | 0.984 | 0.851 | 0.965 | 0.867 |
| NCI-H1703 |  | 0.864 | 0.916 | 0.879 | 0.769 |

| Cell Line | relative viability (0.005 µM) | relative viability (0.01581 µM) | relative viability (0.05 µM) | relative viability (0.1581 µM) | relative viability (0.5 µM) |
| --- | --- | --- | --- | --- | --- |
| NCI-H1734 | 0.849 | 0.922 | 0.952 | 1.03 | 0.999 |
| NCI-H1755 | 0.988 | 1.03 | 1.02 | 0.994 | 0.969 |
| NCI-H1792 |  | 1.06 | 0.925 | 0.567 | 0.762 |
| NCI-H1793 |  | 0.831 | 0.732 | 0.631 | 0.538 |
| NCI-H1915 | 0.96 | 0.971 | 1.01 | 0.978 | 1.05 |
| NCI-H1944 | 0.887 | 0.851 | 0.858 | 0.772 | 0.832 |
| NCI-H1975 | 0.906 | 0.781 | 0.827 | 0.91 | 0.419 |
| NCI-H1993 | 0.617 | 0.822 |  | 0.733 | 0.61 |
| NCI-H2009 | 1.14 | 0.971 | 0.978 | 0.962 | 1.09 |
| NCI-H2023 | 0.89 | 0.849 | 0.891 | 1.03 | 0.943 |
| NCI-H2085 | 0.997 | 0.974 | 0.902 | 0.882 | 0.905 |
| NCI-H2087 | 1.13 | 0.931 | 1.19 |  | 0.99 |
| NCI-H2126 | 0.68 | 0.969 | 0.972 | 0.9 | 0.887 |
| NCI-H2170 | 0.678 | 0.85 | 0.803 | 0.939 | 0.462 |
| NCI-H2228 | 1.01 | 0.752 | 1.1 | 0.872 | 0.868 |
| NCI-H2342 | 0.655 | 0.875 | 0.888 | 0.842 | 0.823 |
| NCI-H2347 | 1.01 | 1.06 | 1.02 | 0.812 | 1.04 |
| NCI-H2405 | 0.924 |  | 0.832 | 0.713 | 0.973 |
| NCI-H3122 | 1.05 | 0.989 | 0.996 | 0.895 | 1 |
| PC-3 [JPC-3] | 1.03 | 0.97 | 0.906 | 0.912 | 0.638 |
| PC-14 | 1.08 | 0.918 | 0.952 | 1.02 | 0.571 |
| RERF-LC-KJ | 1.03 | 0.85 | 0.942 | 0.989 | 0.849 |
| SK-LU-1 | 0.944 | 0.954 | 0.987 | 1.02 |  |
| SW 900 | 0.578 | 0.693 | 0.873 | 0.708 | 0.845 |
| SW 1573 | 0.912 | 0.924 |  | 0.94 | 0.974 |
| UMC-11 | 0.75 | 0.931 | 1.01 | 0.937 | 0.922 |
